Patent US6391575B1, “Methods for detecting membrane derived caspase activity and modulators thereof” (IDUN Pharmaceuticals, Inc., priority 1999, dated 2002)

Assays:
[1] = system: caspase-3 in cytoplasmic fractions (697-neo and 697-Bcl-2 cells); experiment: Effect of exogenous cytochrome c on cytoplasmic fraction caspase activity; assay type: biochemical, human; conditions: cytochrome c during fractionation and assay; neo and Bcl-2 cells; FIG. 6B
Protocol: (§1) Frozen cell pellets containing ≈10^9 cells were thawed and resuspended in cold hypotonic buffer (10 mM Na-HEPES, 5 mM MgCl2, 42 mM KCl, pH 7.4) supplemented with 1 mM PMSF, 1 μg/ml leupeptin, 1 μg/ml pepstatin A, 5 μg/ml aprotinin, 0.1 mM EDTA, 0.1 mM EGTA and 5 mM DTT (Sigma) to a density of ≈1.5×10^8 cells/ml. The samples were incubated on ice for 30 min at which time the cells were lysed using 30-40 strokes with a Dounce homogenizer. The sample was centrifuged twice for 10 min at 500×g, 4° C. to separate the nuclei. The nuclear pellets were then washed twice in the same buffer supplemented with 1.6M sucrose, yielding the nuclear fraction. The supernatant was then centrifuged at 14,000×g for 30 min at 4° C. to pellet the heavy membranes. […] Protein concentrations were measured using Protein Assay Kit II from BioRad with bovine serum albumin as the calibration standard. […]
(§2) Heavy membrane samples were diluted to 1 mg/ml in hypotonic buffer or in 0.25 M sucrose, 10 mM MOPS, 2 mM EDTA, pH 7.4 (Mancini, et al., 1998) containing 5 mM DTT with or without 1% NP-40. […] To examine the time course of spontaneous activation of caspase activity from membranes, 50 μl of heavy membrane slurry containing 50-100 μg total protein was mixed with 200 μl hypotonic buffer containing 25 μM DEVD-amc substrate and 6 mM DTT in 96 well Cytofluor plates and fluorescence was measured over time. […]

[2] = system: membrane-associated procaspase-3 (697-neo and 697-Bcl-2 heavy membranes); experiment: Effect of exogenous cytochrome c on heavy membrane caspase activity; assay type: biochemical, human; conditions: 10 μg/ml bovine cytochrome c during fractionation; 1 μg/ml cytochrome c plus dATP, 40 min at 30° C.; FIG. 6A
Protocol: as §1, §2

[3] = molecular target: T1, membrane-derived caspases (Homo sapiens, UniProt P42574); experiment: Kinetics of DEVD-amc hydrolysis by membrane-derived caspases; assay type: biochemical; conditions: substrate concentration varied 1-100 μM
T1 construct: endogenous in cells
T1 sequence (P42574 29-175 limits assumed): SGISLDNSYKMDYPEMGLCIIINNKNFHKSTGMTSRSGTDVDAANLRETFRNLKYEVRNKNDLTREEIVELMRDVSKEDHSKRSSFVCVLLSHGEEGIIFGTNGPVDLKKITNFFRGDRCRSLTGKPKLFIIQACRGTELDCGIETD
T1 sequence (P42574 176-277 limits assumed): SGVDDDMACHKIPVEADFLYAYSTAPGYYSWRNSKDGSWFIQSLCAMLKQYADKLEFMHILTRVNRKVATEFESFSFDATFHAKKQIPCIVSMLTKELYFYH
Protocol: Caspase activity was measured by mixing 50 μl of an enzyme-containing fraction and 200 μl of 25 μM DEVD-amc (Asp-Glu-Val-Asp-aminomethylcoumarin) substrate in ICE buffer (20 mM HEPES, 1 mM EDTA, 0.1% CHAPS, 10% sucrose, 5 mM DTT, pH 7.5) in duplicate Cytoplate wells. Product formation was monitored by the increase in fluorescence (ex=360 nm, em=460 nm) over 1-2 hours at 30 ° C. using the CytoFluor 4000 plate reader (Perseptive Biosystems, Framingham, Mass.). For kinetic studies, the substrate concentration was varied in the range 1-100 μM. For inhibition studies the enzyme was pretreated with 150 μl inhibitor for 30 min at room temperature prior to the addition of 50 μl of 50 μM substrate solution. Inhibitor IC50 values were determined using the equation: […]
The membrane-derived caspase activities were further characterized by measuring the inhibition of DEVD-amc cleavage by several peptide aldehyde inhibitors (Table I). […] The observed IC50 values for the membrane associated caspases are very similar to those for purified fully-processed recombinant human caspase-3. […] N-terminal microsequence analysis of activated, affinity purified heavy membrane caspase confirms that this enzyme is indeed human caspase-3.

Row | Substance | Effect on DEVD-amc cleavage activity of cytoplasmic fractions [1] | Effect on membrane-derived caspase activity (DEVD-amc cleavage) [2] | Km [3] [µM]
1 | cytochrome c: bovine cytochrome c (Sigma) | strongly activated | no effect | 
2 | Acetyl-Asp-Glu-Val-Asp-aminomethylcoumarin [DEVD-amc] |  |  | 10
